From paper PMC11017246, “Discovery of GLPG2737, a Potent Type 2 Corrector of CFTR for the Treatment of Cystic Fibrosis in Combination with a Potentiator and a Type 1 Co-corrector” (Journal of Medicinal Chemistry, 2024)
Where two headings read alike, the source gives them in different places.

Assays:
[1] = biological target: T1, ΔF508 CFTR (Homo sapiens, UniProt P13569, DEL508-508); assay: CSE-HRP: cell surface expression horseradish peroxidase assay in CFBE41o- cells; format: cell-based; settings: for Emax: CFBE41o-
T1 construct: host or cells: CFBE41o- TetON cells, expression induced with doxycycline
Description: A CFBE41o– cell line stably expressing ΔF508 CFTR harboring an HRP-tag in the fourth extracellular loop was obtained from Professor Gergely Lukacs (Department of Physiology, McGill University, Montreal, QC, Canada).[25] Cells were grown in Eagle’s minimal essential medium (Life Technologies) supplemented with 10% FBS, 1% L-glutamine (Life Technologies), 10 mM HEPES (Life Technologies), 200 μg/mL Geneticin (Life Technologies), and 3 μg/mL puromycin (Sigma) in culture flasks coated with 0.01% bovine serum albumin (BSA) (Sigma), 30 μg/mL Purecol (Nutacon), and 0.001% human fibronectin (Sigma).
CFBE41o– TetON cells expressing HRP tagged ΔF508-CFTR were seeded in white 384-well plates (Greiner) at a density of 2000 cells per well. Medium containing 500 ng/mL doxycycline was used to induce expression of ΔF508-CFTR-HRP. After 3 days, cells were treated with corrector or potentiator compounds and transferred to an incubator at 33 °C. On day 4, cells were washed five times with PBS containing Ca^2+ and Mg^2+ using a Bio-Tek plate washer and incubated with a chemiluminescent HRP substrate (SuperSignal West Pico Chemiluminescent Substrate, Thermo Scientific) for 15 min. Chemiluminescence was measured using an Envision plate reader (PerkinElmer). Dose response data was fitted using a 4 parameter hill function of the form Response = neg control + (pos control – neg control)/(1 + 10^(log EC50-concentration)/HillSlope) to determine EC50 values. Percentage efficacy was calculated using the following formula: (max response – neg control)/(C1 response – neg control).

[2] = Plasma protein binding, human; format: in vitro ADME; settings: human, plasma, pH 7.4, human plasma; read-out: PPB % human (converted)
Description: (§1) Plasma protein binding was determined by equilibrium dialysis using the Pierce Red Device plate with inserts (ThermoScientific). Test compound at 5 μM (0.5% DMSO) spiked in freshly thawed human, rat, mouse, or dog plasma (Bioreclamation INC, Westbury, NY, USA) was dialyzed against phosphate-buffered saline (PBS, pH 7.4) at 37 °C under shaking for 4 h. Aliquots were taken from each side of the well, and matrix matched. Proteins were precipitated with an excess of acetonitrile, samples were mixed and centrifuged, and the supernatant was analyzed by liquid chromatography–mass spectrometry/mass spectrometry (LC–MS/MS). Addition of compound peak areas in the buffer chamber and the plasma chamber was considered to be 100% compound.

[3] = PK rat; format: in vivo
Description: These studies were performed with naïve male Sprague–Dawley rats (Janvier France, 6–8 weeks old). Rats were dosed iv via a bolus in the tail vein with a dose level of 0.1 mg/kg or orally as a single esophageal gavage with a dose level of 5 mg/kg. For the iv route, the compound was formulated in PEG200/water (60/40; v/v). For the oral route, the compound was formulated in MC 0.5% (2/98) as a homogeneous suspension. Before the oral dosing, the animals were deprived of food for at least 12 h before compound administration until 3 h after administration. All animals had free access to the tap water. Blood samples were collected under light anesthesia and placed into tubes containing Li-heparin as an anticoagulant. Blood samples were collected up to 24 h after dosing (n = 3 rats per route). After centrifugation, the resulting plasma samples were assayed by LC-MS/MS with a nongood laboratory practice (non-GLP)-validated method. PK parameters were calculated by noncompartmental analysis using WinNonlin software (Certara, Princeton, NJ, USA).

[4] = Plasma protein binding, rat; format: in vitro ADME; settings: pH 7.4, read-out: PPB % rat (converted)
Description: as §1

[5] = biological target: T1, ΔF508 CFTR; assay: TECC (transepithelial clamp circuit) in primary CF-derived HBE cells; format: cell-based; settings: for Emax: read-out: TECC HBE with GLPG2222 % max activation
Description: Bronchial epithelial cells isolated from the lungs of patients with CF homozygous for the ΔF508 CFTR mutation were obtained from McGill University (Montreal, QC, Canada) or the University of North Carolina (Chapel Hill, NC, United States). Cells were isolated from lungs obtained from donors undergoing planned transplantation. These primary cells were cultured directly on type IV collagen-coated polycarbonate Transwell supports with a diameter of 6.5 mm and pore size of 0.4 μm (Costar, #3397) for 18–25 days in an air–liquid interface, essentially as previously described for TECC.[23]
Twenty-four hours prior to the electrophysiological recording, corrector and/or potentiator compounds were added on both the apical and basolateral sides. TECC recordings were performed by using the TECC instrument developed and sold by EP Design (Bertem, Belgium). During the recording, the epithelial cells were bathed in a NaCl-Ringer solution (120 mM NaCl, 20 mM HEPES, 1.2 mM CaCl2, 1.2 mM MgCl2, 0.8 mM KH2PO4, 0.8 mM K2HPO4, 5 mM glucose, pH 7.4) on both the basolateral (640 μL) and the apical (160 μL) sides and kept at 37 °C. Corrector and potentiator compounds were readded at the same concentration used during the 24 h pretreatment. Apical amiloride was used to inhibit the endogenous ENaC currents (100 μM), while forskolin (10 μM) was applied on both the apical and basolateral sides to stimulate CFTR. Measurements were done during a 20 min time frame with recordings every 2 min. The transepithelial potential and transepithelial resistance were measured in an open circuit and transformed to Ieq using Ohm’s law. The maximal increase in Ieq (ΔIeq, the difference in current before and after forskolin or potentiator treatment) was used as a measure for the increased CFTR activity. EC50 values were generated by measuring the impact of different concentrations of compounds on ΔIeq in primary cells. For this purpose, each transwell was treated with a different compound concentration. CFTRInh-172 was added apically at 10 μM to assess the specificity of the response. Dose response data was fitted using a 3-parameter hill function of the form Response = Bottom + (Top – Bottom)/(1 + (EC50/concentration)) to determine EC50 values. Percentage efficacy was calculated using the following formula: (max response – neg control)/(C1 response – neg control).

[6] = Hepatocyte stability, rat; format: in vitro ADME; settings: pooled cryopreserved hepatocytes in suspension, read-out: Hep CLint,u rat (converted)
Description: The hepatocyte stability assay was performed by incubation of test compound at 1 μM, 0.03% DMSO in modified Krebs–Henseleit buffer with suspension of pooled cryopreserved hepatocytes (BioIVT, Hicksville, NY, USA) from mouse, rat, dog, or human (BioIVT, Hicksville, NY, USA) at 0.5 million viable hepatocytes/mL. Before adding the hepatocytes (time zero) and after 10, 20, 45, 90, 120, and 180 min of incubation (n = 2) at 37 °C while gently shaking, the reaction was stopped and proteins were precipitated with an excess of acetonitrile containing an internal standard. The samples were mixed, centrifuged, and filtered, and the supernatant was analyzed by liquid chromatography–mass spectrometry/mass spectrometry (LC–MS/MS). The instrument responses (peak areas/IS peak areas) were referenced to the zero-time point samples (considered as 100%) in order to determine the percentage of compound remaining.

[7] = no additional corrector, relative to lumacaftor or 5 (3 μM) positive control, read-out: CSE-HRP % max activation
[8] = no additional corrector, 24 h incubation, 33 °C, geometric mean, read-out: CSE-HRP EC50
[9] = in the presence of C1 corrector 5, relative to 5 (3 μM) positive control, read-out: CSE-HRP with 5 % max activation
[10] = in the presence of C1 corrector 5, read-out: CSE-HRP with 5 EC50

T1 sequence (P13569 with tags, fused parts or gaps DEL508-508): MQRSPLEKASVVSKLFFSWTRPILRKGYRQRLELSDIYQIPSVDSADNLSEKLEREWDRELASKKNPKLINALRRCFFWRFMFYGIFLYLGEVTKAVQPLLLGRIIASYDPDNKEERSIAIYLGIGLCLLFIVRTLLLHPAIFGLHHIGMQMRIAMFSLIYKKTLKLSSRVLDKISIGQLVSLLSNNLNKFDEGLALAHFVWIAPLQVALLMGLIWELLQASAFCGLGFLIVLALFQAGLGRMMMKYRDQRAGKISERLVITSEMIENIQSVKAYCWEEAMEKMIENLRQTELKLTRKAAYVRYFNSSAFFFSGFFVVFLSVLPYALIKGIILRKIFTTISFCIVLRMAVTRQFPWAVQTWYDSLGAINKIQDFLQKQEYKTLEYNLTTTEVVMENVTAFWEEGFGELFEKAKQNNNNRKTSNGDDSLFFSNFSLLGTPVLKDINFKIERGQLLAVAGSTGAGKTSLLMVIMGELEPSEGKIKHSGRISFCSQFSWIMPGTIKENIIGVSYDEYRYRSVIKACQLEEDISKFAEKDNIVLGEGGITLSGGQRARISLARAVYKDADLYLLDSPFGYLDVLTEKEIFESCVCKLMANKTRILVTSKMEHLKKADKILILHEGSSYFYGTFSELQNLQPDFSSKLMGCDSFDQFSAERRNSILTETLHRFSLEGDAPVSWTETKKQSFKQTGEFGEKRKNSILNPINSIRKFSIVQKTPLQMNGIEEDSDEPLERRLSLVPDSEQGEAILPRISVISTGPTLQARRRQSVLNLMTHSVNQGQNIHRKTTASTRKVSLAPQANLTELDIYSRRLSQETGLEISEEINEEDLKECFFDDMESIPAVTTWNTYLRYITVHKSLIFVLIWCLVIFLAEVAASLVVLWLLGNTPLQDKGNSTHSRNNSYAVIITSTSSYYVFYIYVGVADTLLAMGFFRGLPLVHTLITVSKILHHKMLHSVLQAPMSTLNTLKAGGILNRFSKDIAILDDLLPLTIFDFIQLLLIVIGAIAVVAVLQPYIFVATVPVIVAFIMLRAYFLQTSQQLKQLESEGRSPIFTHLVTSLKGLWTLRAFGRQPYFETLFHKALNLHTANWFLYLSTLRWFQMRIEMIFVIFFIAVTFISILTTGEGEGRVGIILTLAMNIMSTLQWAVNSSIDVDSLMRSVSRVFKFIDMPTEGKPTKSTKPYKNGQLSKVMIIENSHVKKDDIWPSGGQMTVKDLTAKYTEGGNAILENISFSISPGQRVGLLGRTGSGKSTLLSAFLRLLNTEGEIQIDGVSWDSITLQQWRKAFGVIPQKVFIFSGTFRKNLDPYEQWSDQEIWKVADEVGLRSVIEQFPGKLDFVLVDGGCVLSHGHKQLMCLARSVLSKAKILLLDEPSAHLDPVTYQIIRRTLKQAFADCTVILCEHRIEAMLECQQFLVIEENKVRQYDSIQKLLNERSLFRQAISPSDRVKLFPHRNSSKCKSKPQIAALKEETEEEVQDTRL

SMILES | Emax [1, 7] | EC50 [1, 8] | further results
Cc1nn(C2CCN(C)CC2)c2nc(C(=O)O)cc(-c3ccc(N4CCOCC4)cc3)c12 [Compound 14] | -2% | 10000 nM | 
O=C(O)c1cc(-c2ccc(N3CCOCC3)cc2)c2cnn(-c3ccccc3)c2n1 [Compound 15] | 116% | 1270 nM | 
CC(C)c1nn(-c2ccccc2)c2nc(C(=O)O)cc(-c3ccc(N4CCOCC4)cc3)c12 [Compound 16] | 184% | 448 nM | 
O=C(O)c1cc(-c2ccc(N3CCOCC3)cc2)c2c(C3CCC3)nn(-c3ccccc3)c2n1 [Compound 18] |  |  | fraction unbound at 4 h, 5 μM [2]: 0.01; clearance ([3]; male, Sprague-Dawley, plasma, 1 mg/kg, iv dosing, read-out: plasma clearance (converted)): 3.33 mL/min/kg; clearance ([3]; male, Sprague-Dawley, plasma, iv, 0.1 mg/kg, formula-strings file, unit inferred, read-out: Cl (converted)): 3.33 mL/min/kg; Vd ([3]; male, Sprague-Dawley, plasma, iv, 0.1 mg/kg, formula-strings file, unit inferred, read-out: Vss): 0.474 L/kg; Vd ([3]; male, Sprague-Dawley, plasma, iv, 1 mg/kg, 1 mg/kg iv, read-out: Vss): 0.474 L/kg
COCCNc1ccc(-c2cc(C(=O)O)nc3c2c(C)nn3-c2ccccc2)cc1 [Compound 24] | 175% | 2120 nM | 
COCCN(C)c1ccc(-c2cc(C(=O)O)nc3c2c(C)nn3-c2ccccc2)cc1 [Compound 25] | 204% | 1490 nM | 
CC(=O)c1cc(-c2ccc(N3CCOCC3)cc2)c2c(C)nn(-c3ccccc3)c2n1 [Compound 29] | 8.2% | 10000 nM | 
Cc1nn(-c2ccccc2)c2nc(CO)cc(-c3ccc(N4CCOCC4)cc3)c12 [Compound 30] | 15% | 10000 nM | 
Cc1nn(-c2ccccc2)c2nc(C(C)O)cc(-c3ccc(N4CCOCC4)cc3)c12 (centres unmarked) [Compound 31] | 8.8% | 10000 nM | 
Cc1nn(-c2ccccc2)c2nc(C(C)(C)O)cc(-c3ccc(N4CCOCC4)cc3)c12 [Compound 32] | 5% | 10000 nM | 
Cc1nn(-c2ccccc2)c2nc(C(=O)NCC(F)(F)F)cc(-c3ccc(N4CCOCC4)cc3)c12 [Compound 33] | 7% | 10000 nM | 
COc1cc(-c2cc(-c3ccc(N4CCOCC4)cc3)c3c(C)nn(-c4ccccc4)c3n2)n[nH]1 [Compound 34] | 4% | 10000 nM | 
Cc1nn(-c2ccccc2)c2nc(CC(=O)O)cc(-c3ccc(N4CCOCC4)cc3)c12 [Compound 35] | 24% | 10000 nM | 
Cc1nn(-c2ccccc2)c2nc(C(=O)NC#N)cc(-c3ccc(N4CCOCC4)cc3)c12 [Compound 36] | 96% | 2980 nM | 
CS(=O)(=O)NC(=O)c1cc(-c2ccc(N3CCOCC3)cc2)c2c(C3CCC3)nn(-c3ccccc3)c2n1 [Compound 39] |  |  | fraction unbound at 4 h, 5 μM [2]: 0.0005
COCCN(C)c1ccc(-c2cc(C(=O)O)nc3c2c(C2CCC2)nn3-c2ccccc2)cc1 [Compound 40] | 173% | 542 nM | Emax [1, 9]: 325%; EC50 [1, 10]: 448 nM
COCCN(C)c1ccc(-c2cc(C(=O)O)nc3c2c(C2CCC2)nn3-c2ccccc2)cn1 [Compound 42] | 191% | 529 nM | Emax [1, 9]: 417%; EC50 [1, 10]: 483 nM
CS(=O)(=O)NC(=O)c1cc(N2CCCCC2)c2c(C3CCC3)nn(-c3ccccc3)c2n1 [Compound 46] |  |  | fraction unbound at 4 h, 5 μM [2]: < 0.001; fraction unbound at 4 h, 5 μM [4]: 0.001
COC1CCN(c2cc(C(=O)NS(C)(=O)=O)nc3c2c(C2CCC2)nn3-c2ccccc2)CC1 [Compound 47] |  |  | fraction unbound at 4 h, 5 μM [2]: 0.002; fraction unbound at 4 h, 5 μM [4]: 0.002
CS(=O)(=O)NC(=O)c1cc(N2CCC(C#N)CC2)c2c(C3CCC3)nn(-c3ccccc3)c2n1 [Compound 48] |  |  | fraction unbound at 4 h, 5 μM [2]: 0.003; fraction unbound at 4 h, 5 μM [4]: 0.003; Emax ([5]; primary ΔF508 homozygous HBE cells, 24 h incubation, with GLPG2222): 265%; EC50 ([5]; primary ΔF508 homozygous HBE cells, 24 h incubation, with GLPG2222, read-out: TECC HBE with GLPG2222 EC50): 60 nM
CS(=O)(=O)NC(=O)c1cc(N2CCC(N3CCOCC3)CC2)c2c(C3CCC3)nn(-c3ccc(F)cc3)c2n1 [Compound 50] |  |  | fraction unbound at 4 h, 5 μM [2]: 0.013; CLint scaled at 1 μM [6]: < 11.5 mL/min/kg; fraction unbound at 4 h, 5 μM [4]: 0.009; Emax ([5]; HBE, footnote b: after 24 h incubation a fixed 1 μM C2 corrector concentration was added during the recording): 410%; EC50 ([5]; footnote b: after 24 h incubation a fixed 1 μM C2 corrector concentration was added during the recording, read-out: TECC HBE with GLPG2222 EC50): 46 nM; CLu rat ([3]; iv, unbound clearance): 205 mL/min/kg; clearance ([3]; male, Sprague-Dawley, plasma, 0.1 mg/kg, iv, read-out: CLp rat (converted)): 1.83 mL/min/kg; half-life ([3]; male, Sprague-Dawley, plasma, 0.1 mg/kg, iv, read-out: t1/2 iv rat (converted)): 3.31 h; Vd ([3]; male, Sprague-Dawley, plasma, iv, 0.1 mg/kg, iv, read-out: Vss rat): 0.47 L/kg
CC1(C)Cc2c(sc(NC(=O)c3ccn[nH]3)c2C(N)=O)C(C)(C)O1 [GLPG1837, reference compound] |  |  | fold ([5]; no C2 corrector (reference)): 1 fold; EC50 ([5]; no C2 corrector, C1 corrector GLPG2222 (4) 0.15 μM, read-out: EC50 of potentiator GLPG1837): 13 nM
